The text below walks through data of ChEMBL document CHEMBL2169878 (J Med Chem, 2012).

Structures are written as SMILES.

The test system of data set [1] is Salmonella typhimurium. Nature of the data set: Mutagenicity against Salmonella typhimurium TA98 assessed as revertants at 2 uM incubated for 90 mins followed by drug washout measured after 2 days relative to positive control. The conditions noted are these: salmonella enterica subsp. enterica serovar typhimurium, 1.5 h. It is filed as toxicity, organism-based.

A short description of data set [2]: Cytotoxicity against mouse NIH3T3 cells after 24 hrs by neutral red dye uptake assay. It is filed as cell-based. The conditions noted are these: read-out: TC50.
Data set [3] in a line: Cytotoxicity against human HepG2 cells after 24 hrs by neutral red dye uptake assay. The following applies: read-out: TC50. The class given is cell-based.
The test system of data set [4] is Salmonella typhimurium. The experiment in a line: Mutagenicity against Salmonella typhimurium TA100 assessed as revertants at 17 uM incubated for 90 mins followed by drug washout measured after 2 days relative to positive control. It is filed as toxicity, organism-based. The conditions noted are these: salmonella enterica subsp. enterica serovar typhimurium.
Data set [5] concerns Plasmodium falciparum. The experiment in a line: Antiplasmodial activity against chloroquine-sensitive Plasmodium falciparum D10 infected in human RBC after 72 hrs by parasite lactate dehydrogenase assay. It is filed as functional, organism-based. The following applies: D10, 72 h.
The test system of data set [6] is Plasmodium falciparum. The experiment in a line: Antiplasmodial activity against chloroquine-sensitive Plasmodium falciparum NF54 infected in human erythrocytes assessed as inhibition of [3H]hypoxanthine incorporation incubated for 48 hrs prior to [3H]hypoxanthine addition measured after 48 hrs by liquid scintillation counting. The class given is functional, organism-based.

For data set [7], the system named is Salmonella typhimurium. The experiment in a line: Mutagenicity against Salmonella typhimurium TA100 assessed as revertants at 4 uM incubated for 90 mins followed by drug washout measured after 2 days relative to positive control. The following applies: salmonella enterica subsp. enterica serovar typhimurium, 1.5 h. The class given is toxicity, organism-based.

In data set [8] the test system is Salmonella typhimurium. Nature of the data set: Mutagenicity against Salmonella typhimurium TA98 assessed as revertants at 33 uM incubated for 90 mins followed by drug washout measured after 2 days relative to positive control. The class given is toxicity, organism-based. The conditions noted are these: salmonella enterica subsp. enterica serovar typhimurium, 1.5 h.

The test system of data set [9] is Salmonella typhimurium. Nature of the data set: Mutagenicity against Salmonella typhimurium TA98 assessed as revertants at 66 uM incubated for 90 mins followed by drug washout measured after 2 days relative to positive control. The class given is toxicity, organism-based. The conditions noted are these: salmonella enterica subsp. enterica serovar typhimurium.
The test system of data set [10] is Salmonella typhimurium. Nature of the data set: Mutagenicity against Salmonella typhimurium TA100 assessed as revertants at 33 uM incubated for 90 mins followed by drug washout measured after 2 days relative to positive control. It is filed as toxicity, organism-based. The following applies: salmonella enterica subsp. enterica serovar typhimurium, 1.5 h.
The test system of data set [11] is Plasmodium falciparum. Nature of the data set: Antiplasmodial activity against chloroquine-resistant Plasmodium falciparum K1 infected in human erythrocytes assessed as inhibition of [3H]hypoxanthine incorporation incubated for 48 hrs prior to [3H]hypoxanthine addition measured after 48 hrs by liquid scintillation counting. It is filed as functional, organism-based.

Data set [12] deals with Salmonella typhimurium. Nature of the data set: Mutagenicity against Salmonella typhimurium TA98 assessed as revertants at 17 uM incubated for 90 mins followed by drug washout measured after 2 days relative to positive control. It is filed as toxicity, organism-based. The conditions noted are these: salmonella enterica subsp. enterica serovar typhimurium.
The subject of data set [13] is Plasmodium falciparum. Nature of the data set: Antiplasmodial activity against chloroquine-resistant Plasmodium falciparum W2 infected in human RBC after 72 hrs by parasite lactate dehydrogenase assay. It is filed as functional, organism-based. The conditions noted are these: W2, 72 h.
For data set [14], the system named is Salmonella typhimurium. The experiment in a line: Mutagenicity against Salmonella typhimurium TA100 assessed as revertants at 9 uM incubated for 90 mins followed by drug washout measured after 2 days relative to positive control. It is filed as toxicity, organism-based. The conditions noted are these: salmonella enterica subsp. enterica serovar typhimurium, 1.5 h.

For data set [15], the system named is Salmonella typhimurium. Nature of the data set: Mutagenicity against Salmonella typhimurium TA100 assessed as revertants at 66 uM incubated for 90 mins followed by drug washout measured after 2 days relative to positive control. It is filed as toxicity, organism-based. The following applies: salmonella enterica subsp. enterica serovar typhimurium.
Data set [16] deals with Salmonella typhimurium. Nature of the data set: Mutagenicity against Salmonella typhimurium TA98 assessed as revertants at 8 uM incubated for 90 mins followed by drug washout measured after 2 days relative to positive control. It is filed as toxicity, organism-based. The following applies: salmonella enterica subsp. enterica serovar typhimurium, 1.5 h.
For data set [17], the system named is Salmonella typhimurium. Nature of the data set: Mutagenicity against Salmonella typhimurium TA100 assessed as revertants at 2 uM incubated for 90 mins followed by drug washout measured after 2 days relative to positive control. The class given is toxicity, organism-based. The conditions noted are these: salmonella enterica subsp. enterica serovar typhimurium.

For data set [18], the system named is Salmonella typhimurium. Nature of the data set: Mutagenicity against Salmonella typhimurium TA98 assessed as revertants at 4 uM incubated for 90 mins followed by drug washout measured after 2 days relative to positive control. It is filed as toxicity, organism-based. The following applies: salmonella enterica subsp. enterica serovar typhimurium.
Data set [19] deals with Salmonella typhimurium. The experiment in a line: Mutagenicity against Salmonella typhimurium TA98 assessed as revertants at 1 uM incubated for 90 mins followed by drug washout measured after 2 days relative to positive control. It is filed as toxicity, organism-based. The following applies: salmonella enterica subsp. enterica serovar typhimurium.
The test system of data set [20] is Salmonella typhimurium. The experiment in a line: Mutagenicity against Salmonella typhimurium TA100 assessed as revertants at 32 uM incubated for 90 mins followed by drug washout measured after 2 days relative to positive control. The class given is toxicity, organism-based. The following applies: salmonella enterica subsp. enterica serovar typhimurium.
Data set [21] relates to Plasmodium falciparum. The experiment in a line: Resistance ratio of IC50 for chloroquine-resistant Plasmodium falciparum K1 to IC50 for chloroquine-sensitive Plasmodium falciparum NF54. The class given is functional.
For data set [22], the system named is Salmonella typhimurium. The experiment in a line: Mutagenicity against Salmonella typhimurium TA98 assessed as revertants at 32 uM incubated for 90 mins followed by drug washout measured after 2 days relative to positive control. The class given is toxicity, organism-based. The following applies: salmonella enterica subsp. enterica serovar typhimurium, 1.5 h.

Data set [23] concerns Salmonella typhimurium. The experiment in a line: Mutagenicity against Salmonella typhimurium TA98 assessed as revertants at 16 uM incubated for 90 mins followed by drug washout measured after 2 days relative to positive control. The class given is toxicity, organism-based. The following applies: salmonella enterica subsp. enterica serovar typhimurium.
For data set [24], the system named is Salmonella typhimurium. Nature of the data set: Mutagenicity against Salmonella typhimurium TA100 assessed as revertants at 16 uM incubated for 90 mins followed by drug washout measured after 2 days relative to positive control. The conditions noted are these: salmonella enterica subsp. enterica serovar typhimurium. The class given is toxicity, organism-based.

The subject of data set [25] is Salmonella typhimurium. The experiment in a line: Mutagenicity against Salmonella typhimurium TA100 assessed as revertants at 1 uM incubated for 90 mins followed by drug washout measured after 2 days relative to positive control. It is filed as toxicity, organism-based. The following applies: salmonella enterica subsp. enterica serovar typhimurium, 1.5 h.
Data set [26] relates to Plasmodium falciparum. Nature of the data set: Resistance ratio of IC50 for chloroquine-resistant Plasmodium falciparum W2 to IC50 for chloroquine-sensitive Plasmodium falciparum D10. It is filed as functional.
Data set [27] has as its target T1, Chloroquine resistance transporter (Plasmodium falciparum) (UniProt Q9N623).
T1 sequence (whole entry): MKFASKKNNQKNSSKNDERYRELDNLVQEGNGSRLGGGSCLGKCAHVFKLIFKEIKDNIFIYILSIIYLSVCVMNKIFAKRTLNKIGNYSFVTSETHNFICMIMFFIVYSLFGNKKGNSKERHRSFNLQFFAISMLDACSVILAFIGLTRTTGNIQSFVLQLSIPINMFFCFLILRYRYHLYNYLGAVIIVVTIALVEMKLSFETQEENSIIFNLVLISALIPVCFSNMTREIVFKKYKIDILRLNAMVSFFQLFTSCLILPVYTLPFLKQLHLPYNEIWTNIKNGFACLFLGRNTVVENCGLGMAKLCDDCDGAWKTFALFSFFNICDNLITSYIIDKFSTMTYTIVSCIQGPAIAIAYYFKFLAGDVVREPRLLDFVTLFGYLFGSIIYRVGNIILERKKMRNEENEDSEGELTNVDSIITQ
Nature of the data set: Inhibition of chloroquine-resistant Plasmodium falciparum Dd2 CRT expressed in Xenopus laevis oocyte assessed as inhibition of [3H]chloroquine uptake at 100 uM measured from 1 to 2 hrs.

As a reminder, the IC50 is the point on the concentration scale where inhibition reaches its midpoint. As to `Fc1cc(C(Nc2ccnc3cc(C(F)(F)F)ccc23)c2ccc(Cl)cc2)ccc1CN1CCCC1` (racemic), the Activity in the data set with Salmonella typhimurium [1] is listed as 1%; in the data set on Salmonella typhimurium [4], 4%; in the data set with Salmonella typhimurium [7], 3%; in the data set with Salmonella typhimurium [8], 4%; with Salmonella typhimurium [9], 8%; with Salmonella typhimurium [10] it was 8%. Also, the Activity in the data set with Salmonella typhimurium [12] worked out at 4%; in the data set with Salmonella typhimurium [14] it was 1%; with Salmonella typhimurium [15] it was 1%; in the data set on Salmonella typhimurium [16], 1%; in the data set with Salmonella typhimurium [17], 4%; with Salmonella typhimurium [18] it was 1%. For the same molecule, the CC50 at 24 h in data set [2] came to 34 µM; in [3] it was 19 µM. The IC50 with Plasmodium falciparum [5] is 0.051 µM; in the data set on Plasmodium falciparum [6], 0.02 µM; in the data set with Plasmodium falciparum [11], 0.033 µM; in the data set with Plasmodium falciparum [13], 0.076 µM.

What is called inhibition is the relative decrease from the control value, in per cent. With `Clc1cccc(C(Nc2ccnc3cc(Cl)ccc23)c2ccc(CN3CCCC3)cc2)c1` (racemic), the Activity with Salmonella typhimurium [1] was determined as 2%; in the data set on Salmonella typhimurium [19], 2%; in the data set with Salmonella typhimurium [20] it was 2%; with Salmonella typhimurium [7] it was 0%; with Salmonella typhimurium [22], 2%; in the data set on Salmonella typhimurium [23], 14%. Also, the Activity with Salmonella typhimurium [24] was found to be 10%; in the data set with Salmonella typhimurium [25] it was 5%; in the data set on Salmonella typhimurium [14] it was 5%; in the data set on Salmonella typhimurium [16] it was 6%; in the data set with Salmonella typhimurium [17] it was 2%; with Salmonella typhimurium [18], 0%. Also, the CC50 at 24 h stood at 9 µM in data set [2] and 31 µM in [3]. Moreover, the “Ratio IC50” value in the data set on Plasmodium falciparum [21] was 1.3; with Plasmodium falciparum [26] it was 1. The inhibition in data set [27] came to 70%.
